Measured values from PubChem BioAssay (NCI).
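Tested at 5 concentrations; 48 h exposure; 96-well plates; endpoints linearly interpolated, else capped at highest concentration. Abbreviation: GI50, concentration required for 50% inhibition of growth. TGI is the concentration that stops growth completely.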

Key:
Experiment in all cases: DTP human tumour cell line panel, 48 h
[1] = system: U251 CNS
[2] = system: EKVX NSCLC
[3] = system: PC-3 prostate
[4] = system: K-562 leukemia
[5] = system: SF-268 CNS
[6] = system: HOP-92 NSCLC
[7] = system: RPMI-8226 leukemia
[8] = system: NCI-H460 lung
[9] = system: NCI-H23 lung
[10] = system: SF-295 CNS
[11] = system: A549 NSCLC
[12] = system: CAKI-1 renal
[13] = system: HS 578T breast
[14] = system: SW-620 colon
[15] = system: HCT-15 colon
[16] = system: SK-MEL-5 melanoma
[17] = system: UO-31 renal
[18] = system: RXF 393 renal
[19] = system: HT29 colon
[20] = system: SF-539 CNS
[21] = system: BT-549 breast
[22] = system: SNB-75 CNS
[23] = system: SNB-19 CNS
[24] = system: MOLT-4 leukemia
[25] = system: KM12 colon
[26] = system: SN12C renal
[27] = system: A498 renal
[28] = system: MDA-MB-231 breast
[29] = system: MCF7 breast
[30] = system: NCI-H522 lung
[31] = system: 786-0 renal
[32] = system: LOX IMVI melanoma
[33] = system: HCT-116 colon
[34] = system: IGROV1 ovarian
[35] = system: OVCAR-8 ovarian
[36] = system: CCRF-CEM leukemia
[37] = system: SK-MEL-2 melanoma
[38] = system: OVCAR-5 ovarian
[39] = system: SK-MEL-28 melanoma
[40] = system: COLO 205 colon
[41] = system: M14 melanoma
[42] = system: UACC-257 melanoma
[43] = system: UACC-62 melanoma
[44] = system: HL-60(TB) leukemia
[45] = system: SK-OV-3 ovarian
[46] = system: TK-10 renal
[47] = system: SR leukemia
[48] = system: OVCAR-3 ovarian
[49] = system: MALME-3M melanoma
[50] = system: ACHN renal
[51] = system: MDA-MB-435
[52] = system: T-47D breast
[53] = system: MDA-MB-468 breast
[54] = system: DU-145 prostate
[55] = system: HOP-62 NSCLC
[56] = system: NCI-H226 lung
[57] = system: OVCAR-4 ovarian
[58] = system: NCI/ADR-RES ovarian
[59] = system: HCC-2998 colon

Cc1ccc(C2CC(c3ccc(NC(=O)Nc4ccccc4)cc3)=NN2c2ccc(S(C)(=O)=O)cc2)cc1 (stereo not drawn)
GI50 [1]: 4.36 µM | TGI [1]: 17.1 µM | GI50 [2]: 2.61 µM | TGI [2]: 11.1 µM | GI50 [3]: 2.82 µM | TGI [3]: 11.8 µM | GI50 [4]: 3.14 µM | TGI [4]: 70.9 µM | GI50 [5]: 3.82 µM | TGI [5]: 15.5 µM | GI50 [6]: 2.35 µM | TGI [6]: 8.22 µM | GI50 [7]: 2.48 µM | TGI [7]: 7.98 µM | GI50 [8]: 2.2 µM | TGI [8]: 5.6 µM | GI50 [9]: 2.48 µM | TGI [9]: 8.48 µM | GI50 [10]: 2.58 µM | TGI [10]: 8.35 µM | GI50 [11]: 3.46 µM | TGI [11]: 16 µM | GI50 [12]: 3.34 µM | TGI [12]: 11.6 µM | GI50 [13]: 3.47 µM | TGI [13]: 17.2 µM | GI50 [14]: 2.6 µM | TGI [14]: 12.1 µM | GI50 [15]: 1.95 µM | TGI [15]: 5.4 µM | GI50 [16]: 2.34 µM | TGI [16]: 6.28 µM | GI50 [17]: 2.58 µM | TGI [17]: 11.2 µM | GI50 [18]: 1.84 µM | TGI [18]: 5.08 µM | GI50 [19]: 1.91 µM | TGI [19]: 4.97 µM | GI50 [20]: 2.28 µM | TGI [20]: 6.05 µM | GI50 [21]: 2.95 µM | TGI [21]: 7.93 µM | GI50 [22]: 4.44 µM | TGI [22]: 19.3 µM | GI50 [23]: 5.53 µM | TGI [23]: 18.4 µM | GI50 [24]: 2.42 µM | TGI [24]: 8.14 µM | GI50 [25]: 3.15 µM | TGI [25]: 10.7 µM | GI50 [26]: 1.69 µM | TGI [26]: 3.16 µM | GI50 [27]: 2.73 µM | TGI [27]: 6.97 µM | GI50 [28]: 2.11 µM | TGI [28]: 4.94 µM | GI50 [29]: 2.11 µM | TGI [29]: 6.79 µM | GI50 [30]: 2.24 µM | TGI [30]: 10.6 µM | GI50 [31]: 2.24 µM | TGI [31]: 6.1 µM | GI50 [32]: 1.68 µM | TGI [32]: 3.07 µM | GI50 [33]: 1.72 µM | TGI [33]: 3.56 µM | GI50 [34]: 2.91 µM | TGI [34]: 11 µM | GI50 [35]: 4.83 µM | TGI [35]: 21.7 µM | GI50 [36]: 2.53 µM | TGI [36]: 6.98 µM | GI50 [37]: 7.39 µM | TGI [37]: 22.3 µM | GI50 [38]: 2.27 µM | TGI [38]: 6.78 µM | GI50 [39]: 3.39 µM | TGI [39]: 11.9 µM | GI50 [40]: 1.93 µM | TGI [40]: 3.65 µM | GI50 [41]: 3.28 µM | TGI [41]: 12.6 µM | GI50 [42]: 6.15 µM | TGI [42]: 22.6 µM | GI50 [43]: 3.19 µM | TGI [43]: 13.4 µM | GI50 [44]: 2.09 µM | TGI [44]: 6.11 µM | GI50 [45]: 7.96 µM | TGI [45]: 21.2 µM | GI50 [46]: 4.52 µM | TGI [46]: 17.1 µM | GI50 [47]: 2.59 µM | TGI [47]: 10.7 µM | GI50 [48]: 1.93 µM | TGI [48]: 4.47 µM | GI50 [49]: 2.47 µM | TGI [49]: 8.74 µM | GI50 [50]: 2.99 µM | TGI [50]: 9.59 µM | GI50 [51]: 2.94 µM | TGI [51]: 12.3 µM | GI50 [52]: 3.02 µM | TGI [52]: 11.1 µM | GI50 [53]: 2.09 µM | TGI [53]: 5.66 µM | GI50 [54]: 4.43 µM | TGI [54]: 18.2 µM | GI50 [55]: 6.94 µM | TGI [55]: 21.4 µM | GI50 [56]: 2.41 µM | TGI [56]: 7.04 µM | GI50 [57]: 2.84 µM | TGI [57]: 11.3 µM | GI50 [58]: 2.5 µM | TGI [58]: 7.74 µM | GI50 [59]: 2.38 µM | TGI [59]: 6.27 µM
